Measurements from ChEMBL document CHEMBL2321709, “Acetylcholinesterase immobilized capillary reactors-tandem mass spectrometry: an on-flow tool for ligand screening” (J Med Chem, 2013).

How the values were obtained:
Acetylcholinesterase = Acetylcholinesterase (Electrophorus electricus, UniProt O42275); assay: Competitive inhibition of Electrophorus electricus AChE using acetylcholine as substrate by Lineweaver-Burk plot method
[1] = biological target: Acetylcholinesterase (Electrophorus electricus) (UniProt O42275); assay: Inhibition of Electrophorus electricus AChE using acetylcholine as substrate by chromatography relative to control; details: concentration not given here
Acetylcholinesterase (Electrophorus electricus), sequence (O42275 24-633 limits assumed): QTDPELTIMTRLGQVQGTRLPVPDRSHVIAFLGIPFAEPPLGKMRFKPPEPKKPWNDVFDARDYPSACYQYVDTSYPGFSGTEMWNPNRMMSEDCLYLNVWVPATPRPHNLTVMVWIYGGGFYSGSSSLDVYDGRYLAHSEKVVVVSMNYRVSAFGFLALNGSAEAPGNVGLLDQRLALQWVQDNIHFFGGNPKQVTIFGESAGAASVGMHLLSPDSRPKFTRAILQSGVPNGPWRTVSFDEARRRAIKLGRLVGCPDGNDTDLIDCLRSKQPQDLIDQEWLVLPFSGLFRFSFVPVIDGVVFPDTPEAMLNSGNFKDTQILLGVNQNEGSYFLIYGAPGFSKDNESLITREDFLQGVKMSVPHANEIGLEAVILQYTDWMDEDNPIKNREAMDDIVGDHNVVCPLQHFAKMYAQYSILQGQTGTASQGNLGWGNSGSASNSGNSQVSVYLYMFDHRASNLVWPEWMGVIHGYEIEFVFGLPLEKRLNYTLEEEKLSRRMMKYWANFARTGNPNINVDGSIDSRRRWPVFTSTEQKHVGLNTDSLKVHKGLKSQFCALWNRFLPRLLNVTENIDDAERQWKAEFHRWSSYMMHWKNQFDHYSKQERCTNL

Acetylcholinesterase, sequence (O42275 whole entry): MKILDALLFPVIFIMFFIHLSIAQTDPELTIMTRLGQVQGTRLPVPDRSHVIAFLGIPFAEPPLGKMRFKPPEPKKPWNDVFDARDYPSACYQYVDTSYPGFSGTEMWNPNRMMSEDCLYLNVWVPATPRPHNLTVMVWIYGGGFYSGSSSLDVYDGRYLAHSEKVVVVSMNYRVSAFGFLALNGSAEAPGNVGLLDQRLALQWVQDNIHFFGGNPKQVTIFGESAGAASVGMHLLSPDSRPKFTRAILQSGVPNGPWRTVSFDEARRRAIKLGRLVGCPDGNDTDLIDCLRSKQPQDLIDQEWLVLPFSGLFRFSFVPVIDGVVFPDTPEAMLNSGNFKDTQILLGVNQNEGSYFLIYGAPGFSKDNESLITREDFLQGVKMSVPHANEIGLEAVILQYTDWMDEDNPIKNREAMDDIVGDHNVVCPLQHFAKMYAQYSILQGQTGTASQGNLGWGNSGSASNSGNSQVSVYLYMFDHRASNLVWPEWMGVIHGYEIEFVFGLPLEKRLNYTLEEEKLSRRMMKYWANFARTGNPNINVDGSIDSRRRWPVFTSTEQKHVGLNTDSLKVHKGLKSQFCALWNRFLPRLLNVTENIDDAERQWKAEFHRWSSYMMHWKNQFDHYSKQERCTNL

Compound: O=C(NCCN1CCCCC1)c1cc2ccccc2oc1=O
- IC50 (Acetylcholinesterase): 12.6 µM
- Ki (Acetylcholinesterase): 13.8 µM
- inhibition [1]: > 80%

Compound: CCOC(=O)c1cc2ccc(OCCN3CCCCC3)cc2oc1=O
- IC50 (Acetylcholinesterase): 0.356 µM
- Ki (Acetylcholinesterase): 0.031 µM
- inhibition [1]: > 80%
